Experiment [1] concerns A549/2‐ME2 and H460/2‐ME2 cells. The experiment in a line: Epigenetics Compound Library screen in HIF-1 inhibitor-resistant cells. It counts as cell-based, Human.
Another experiment concerns H460/DR cells. Kind of experiment: Annexin V-FITC/PI apoptosis assay. In kind it is cell-based, Human. The conditions noted are these: 48 h exposure. How it is done: (§1) After incubation for 48 h, cells were harvested by centrifugation and washed twice in PBS. Then stained the cells according to the FITC Annexin V Apoptosis Detection Kit II (BD Biosciences, USA). Control cells stained with Annexin‐V or PI alone were used to compensate for flow cytometric analysis. Viable cells were those with both Annexin‐V and PI‐double negative staining. Annexin‐V‐positive and PI‐negative cells were defined as early apoptotic cells, and Annexin‐V and PI‐double‐positive cells were defined as late apoptotic cells.

The subject of a further experiment is A549/DR cells. Kind of experiment: Annexin V-FITC/PI apoptosis assay. It counts as cell-based, Human. The conditions noted are these: 48 h exposure. How it is done:
as §1

Experiment [2] has as its system A549/DR and H460/DR cells. The experiment in a line: CCK-8 cytotoxicity, resistance ratio in dual drug-resistant cells. It counts as cell-based, Human. The conditions noted are these: A549/DR and H460/DR vs parental. How it is done:
Cells (4 × 10^3per well) were seeded into a 96‐well plate and cultured at 37°C in a 5% CO2 incubator. After 24 h, different concentrations of 2‐ME2 were put into wells which ranged from 0.01 to 100 µM with a minimum of three technical replicates. After 72 h, 10 µl CCK‐8 (MCE, NY, USA) was added to each well and incubated for an additional 4 h at 37°C in a 5% CO2 incubator. Then, […]. The optical density values were measured at 450 nm using a microplate reader (Molecular Devices, San Jose, CA, USA).

The next experiment deals with multiple myeloma. Set-up: method as in PMID 20499131, PMID 17947482, PMID 16832603, PMID 16197617. The conditions noted are these: sixty patients with multiple myeloma, phase II study; ref [15], [16], [17], [18]; cited from earlier work.
In a further experiment the test system is HIF‐1α. The experiment in a line: Western blot of HIF-1α after EZH2 inhibitors. It counts as cell-based. The conditions noted are these: compared to the control group.
In a further experiment the test system is HIF‐1. The experiment in a line: HIF-1 luciferase reporter gene assay (U251-HRE / U251-PGL3). In kind it is cell-based. The conditions noted are these: hypoxic environments, compared to the control group. How it is done: HIF‐1 activity was assessed in U251‐HRE and U251‐PGL3 using a 96‐well format. Cells were rinsed twice with ice‐cold PBS, lysed with 200 µl of passive lysis buffer (Promega, Wisconsin, USA), and incubated at room temperature for 10 min. Lysates were centrifuged and stored at −80°C until assayed. Luciferase assays were conducted by pipetting 20 µl of cell lysate into each well of a 96‐well plate and analyzed immediately after adding the luciferase reagent (Promega) in a multi‐mode microplate reader (Centro LB960, Berthold, Germany).

SMILES strings stand for the structures.

Regarding `CCN(c1cc(C#CCN2CCOCC2)cc(C(=O)NCc2c(C)cc(C)[nH]c2=O)c1C)[C@H]1CC[C@H](N(C)CCOC)CC1` [EPZ011989], the “sensitivity of resistant cells compared to the parental cells” value in experiment [1] is “more sensitive”.

For `COc1cc2c(cc1O)CC[C@@H]1[C@@H]2CC[C@]2(C)[C@@H](O)CC[C@@H]12` [2‐ME2, 2‐methoxy estradiol], the apoptotic cell population result in the experiment with H460/DR cells and in the experiment on A549/DR cells was “much lower” throughout. Moreover, in experiment [2], the “resistance ratio (RI) of the IC50 in drug‐resistant cells compared to the IC50 in parental cells” value is given as “≈ 4”. The “objective response in patients” value in the experiment on multiple myeloma is “no objective response”.

Regarding `CC[C@H](C)n1cc(C)c2c(C(=O)NCc3c(C)cc(C)[nH]c3=O)cc(-c3ccc(N4CCNCC4)nc3)cc21` [GSK126], the apoptotic cell population result in the experiment with H460/DR cells and with A549/DR cells was “much lower” throughout. In addition, the “HIF‐1α protein levels” value with HIF‐1α was “significantly higher levels of HIF‐1α protein”. In addition, in the experiment with HIF‐1, the “luciferase activity in U251” value is “promoted luciferase activity”. Moreover, the “resistance ratio (RI) of the IC50 in drug‐resistant cells compared to the IC50 in parental cells” value in experiment [2] is given as “≈ 4”. Further, the “sensitivity of resistant cells compared to the parental cells” value in experiment [1] is listed as “more sensitive”.

Turning to `CCN(c1cc(-c2ccc(CN3CCOCC3)cc2)cc(C(=O)NCc2c(C)cc(C)[nH]c2=O)c1C)C1CCOCC1` [EPZ6438], the “luciferase activity in U251” value in the experiment with HIF‐1 is listed as “promoted luciferase activity”. In experiment [1], the “sensitivity of resistant cells compared to the parental cells” value is “more sensitive”.

(Values after article PMC10870044, “The Interplay Between HIF‐1α and EZH2 in Lung Cancer and Dual‐Targeted Drug Therapy” (Advanced Science, 2023).)
